# According to patent publication US5254584A, “N-acetonylbenzamides and their use as fungicides” (Rohm and Haas Company, priority 1992, dated 1993):
# Experiments:
# Pythium ultimum [1] = assay: Fungitoxicity assay against Pythium ultimum (in vitro, mycelial dry weight); format: cell-based; settings: Globisporangium ultimum, 48 hours at 25° C., read-out: Pythium EC50
# Experimental: The compounds of Examples 1-20 were tested in vitro for fungicidal activity and phytotoxicity. A. The compounds were tested in vitro for fungicidal activity against Pythium ultimum, Botrytis cinerea and Venturia inaequalis. Fungitoxicity assay against Pythium ultimum: A dilution series of test compound was prepared in dimethylsulfoxide, and 0.1 milliliter (ml) of each dilution was added to 19.9 ml of a liquid asparagine-sucrose broth ([…]. and Katznelson, K., 1971, Can. J. […] Each plate was inoculated with a mycelial plug, 7 millimeters (mm) in diameter, taken from the growing edge of a culture of Pythium ultimum grown on potato dextrose agar. Two replicate plates were used for each treatment. The increase in mycelial dry weight was determined after growth for 48 hours at 25° C. with shaking on a gyrotary shaker at 60 revolutions per minute (rpm). EC50 values were calculated from dose response curves. As used herein, the terminology "EC50" means the concentration of test compound required to inhibit growth by 50% as compared to a control lacking the test compound. Results of the testing for fungicidal activity against the above named fungi are set forth below in Table 3 as Pythium EC50 (ppm), Botrytis EC50 (ppm) and Venturia MIC (ppm), respectively.
# Venturia inaequalis = assay: Fungitoxicity assay against Venturia inaequalis (in vitro, microtiter MIC); format: cell-based; settings: 168 h, minimum inhibitory concentration, 7 days at 25° C.
# Experimental: The compounds of Examples 1-20 were tested in vitro for fungicidal activity and phytotoxicity. A. The compounds were tested in vitro for fungicidal activity against Pythium ultimum, Botrytis cinerea and Venturia inaequalis. Fungitoxicity assay against Venturia inaequalis: Test compounds were dissolved in dimethylsulfoxide at 1 milligram per milliliter (mg/ml), and 50 ul added to 950 ul of yeast extract-dextrose medium (YED, 0.4% yeast extract, 2% dextrose) to give 50 part per million (ppm) solutions. Minimum inhibitory concentration (MIC) values were determined using a microtiter assay with twofold serial dilutions of the prepared 50 ppm solutions (100 ul) in YED medium. Inoculum consisted of a spore suspension of V. inaequalis in YED medium at 2.5×10^5 spores per ml. […] Results of the testing for fungicidal activity against the above named fungi are set forth below in Table 3 as Pythium EC50 (ppm), Botrytis EC50 (ppm) and Venturia MIC (ppm), respectively.
# Botrytis cinerea [2] = assay: Fungitoxicity assay against Botrytis cinerea (in vitro, colony diameter); format: cell-based; settings: 48 hours at 25° C., read-out: Botrytis EC50
# Experimental: The compounds of Examples 1-20 were tested in vitro for fungicidal activity and phytotoxicity. A. The compounds were tested in vitro for fungicidal activity against Pythium ultimum, Botrytis cinerea and Venturia inaequalis. Fungitoxicity assay against Botrytis cinerea: […] The mixtures were poured immediately into 9 centimeter (cm) diameter petri dishes. Two replicate plates were used for each treatment. Each plate was inoculated with a 7 mm diameter plug taken from the growing edge of a 5 day old culture of B. cinerea on potato dextrose agar. […] Results of the testing for fungicidal activity against the above named fungi are set forth below in Table 3 as Pythium EC50 (ppm), Botrytis EC50 (ppm) and Venturia MIC (ppm), respectively.
# [3] = Tobacco root assay for phytotoxicity (in vitro root elongation); settings: 7 days, 27° C., read-out: Tob. EC50
# Experimental: The compounds of Examples 1-20 were tested in vitro for fungicidal activity and phytotoxicity.
# B. The compounds were tested in vitro for phytotoxicity in a tobacco root elongation assay.
# Tobacco root assay for Phytotoxicity:
# A dilution series of test compound was prepared in dimethylsulfoxide and 20 ul of each dilution was added to 20 ml of molten nutrient medium, consisting of Murashige and Skoog salt base, 2% sucrose and 1% agar, to give the desired concentrations of test compound. The mixtures were poured immediately into 9 cm diameter petri dishes. Surface-sterilized tobacco seeds were placed on each plate (20 seeds per plate) and the plates incubated in a vertical position in a 27° C. incubator with a 16 hour photoperiod. After 7 days the mean root lengths were calculated, and EC50 values determined from dose response curves.
# Results of the tobacco root assay are set forth below in Table 3 as Tob. EC50 (ppm).
# tomato plants = assay: In vivo phytotoxic activity, foliar spray, tomato; set-up: key: +: indicating presence of a plant growth regulatory effect as compared to a control to which a solvent mixture (acetone/water/methanol) lacking the test compound was applied; 0: A zero indicates no apparent effect; settings: foliar spray 2200 g/Ha, seven days after application
# Experimental: (§1) The compounds of Examples 1 and 12 were tested in vivo for phytotoxic activity by applying the compounds to the foliage of cucumber, tomato, bean, lettuce and strawberry plants as a spray at a rate of 2200 g/Ha. The plants were evaluated seven days after spray application of the compounds.
# (§2) Phototoxicity scores are set forth below in Table 6. The phytotoxicity scores use a symbol, "+", indicating presence of a plant growth regulatory effect as compared to a control to which a solvent mixture (acetone/water/methanol) lacking the test compound was applied. A zero indicates no apparent effect. Each score is a composite representing the mode value for three replicate plants.
# strawberry plants = assay: In vivo phytotoxic activity, foliar spray, strawberry; set-up: key: +: indicating presence of a plant growth regulatory effect as compared to a control to which a solvent mixture (acetone/water/methanol) lacking the test compound was applied; 0: A zero indicates no apparent effect; settings: foliar spray 2200 g/Ha, seven days after application
# Experimental: as §1, §2
# bean plants = assay: In vivo phytotoxic activity, foliar spray, bean; set-up: key: +: indicating presence of a plant growth regulatory effect as compared to a control to which a solvent mixture (acetone/water/methanol) lacking the test compound was applied; 0: A zero indicates no apparent effect; settings: foliar spray 2200 g/Ha, seven days after application
# Experimental: as §1, §2
# lettuce plants = assay: In vivo phytotoxic activity, foliar spray, lettuce; set-up: key: +: indicating presence of a plant growth regulatory effect as compared to a control to which a solvent mixture (acetone/water/methanol) lacking the test compound was applied; 0: A zero indicates no apparent effect; settings: foliar spray 2200 g/Ha, seven days after application
# Experimental: as §1, §2
# cucumber plants = assay: In vivo phytotoxic activity, foliar spray, cucumber; set-up: key: +: indicating presence of a plant growth regulatory effect as compared to a control to which a solvent mixture (acetone/water/methanol) lacking the test compound was applied; 0: A zero indicates no apparent effect; settings: foliar spray 2200 g/Ha, seven days after application
# Experimental: as §1, §2
# [4] = tested on: Pseudocercosporella herpotrichoides; assay: microbe, parasite or virus in culture; format: cell-based; settings: Oculimacula yallundae, 72 h, 3 days at room temperature, read-out: PSH percent inhibition of fungal growth
# Monilinia fructicol = assay: microbe, parasite or virus in culture; format: cell-based; settings: 72 h, 3 days at room temperature, read-out: MON percent inhibition of fungal growth
# Piricularia oryzae = assay: organism not typed; format: cell-based; settings: 72 h, read-out: PIR percent inhibition of fungal growth
# [5] = tested on: Colletotrichum lagenarium; assay: microbe, parasite or virus in culture; format: cell-based; settings: Colletotrichum orbiculare, 72 h, 3 days at room temperature, read-out: COL percent inhibition of fungal growth
# Pythium ultimum [6] = assay: microbe, parasite or virus in culture; format: cell-based; settings: Globisporangium ultimum, 72 h, 3 days at room temperature, read-out: PYU percent inhibition of fungal growth
# Cercospora beticola = assay: microbe, parasite or virus in culture; format: cell-based; settings: 72 h, 3 days at room temperature, read-out: CER percent inhibition of fungal growth
# Fusarium roseum = assay: microbe, parasite or virus in culture; format: cell-based; settings: Fusarium sambucinum, 72 h, read-out: FUS percent inhibition of fungal growth
# Phytophthora capsici = assay: microbe, parasite or virus in culture; format: cell-based; settings: 72 h, 3 days at room temperature, read-out: PHY percent inhibition of fungal growth
# Rhizoctonia solani = assay: microbe, parasite or virus in culture; format: cell-based; settings: 72 h, 3 days at room temperature, read-out: RHI percent inhibition of fungal growth
# Botrytis cinerea [7] = assay: microbe, parasite or virus in culture; format: cell-based; settings: 72 h, 3 days at room temperature, read-out: BOC percent inhibition of fungal growth
SMILES,IC50 (Pythium ultimum [1]) [µg/mL],MIC (Venturia inaequalis) [µg/mL],IC50 (Botrytis cinerea [2]) [µg/mL],IC50 at 168 h [3] [µg/mL],other results
"CCC(C)(NC(=O)c1cc(C=NOC)cc(C=NOC)c1)C(=O)CCl (stereo not drawn) [Example 15, N-[3'-(1'-chloro-3'-methyl-2'-oxopentan)]-3,5-dimethoxyiminomethylbenzamide]",4.16,1.56,4.19,2.33,–
CCC(C)(NC(=O)c1cccc(C=NOCC(=O)OC)c1)C(=O)CCl (stereo not drawn) [Example 7],22.8,> 25,> 100,9.48,–
"CCC(C)(NC(=O)c1ccc(C=NOC)c(Cl)c1)C(=O)CCl (stereo not drawn) [Example 16, N-[3'-(1'-chloro-3'-methyl-2'-oxopentan)]-3-chloro-4-methoxyiminomethylbenzamide]",0.58,6.25,12.6,11.3,–
CCON=Cc1cccc(C(=O)NC(C)(CC)C(=O)C(Cl)Cl)c1 (stereo not drawn) [Example 4],68.4,> 25,68.9,–,–
"CCC(C)(NC(=O)c1cccc(C=NOC)c1)C(=O)C(Cl)Cl (stereo not drawn) [Example 5, 3-(3'-Methoxyiminomethylbenzamido)-1,1-dichloro-3-methylpentan-2-one]",16.3,> 25,54.6,–,–
CCC(C)(NC(=O)c1cc(C)cc(C=NO)c1)C(=O)CCl (stereo not drawn) [Example 18],5.95,> 25,53.9,–,–
"CCC(C)(NC(=O)c1cc(Cl)c(C=NOC)c(Cl)c1)C(=O)CCl (stereo not drawn) [Example 20, N-[3'-(1'-chloro-3'-methyl-2'-oxopentan)]-3,5-dichloro-4-methoxyiminobenzamide]",0.23,–,–,1,–
"CCC(C)(NC(=O)c1ccc(C=NOC)cc1)C(=O)CCl (stereo not drawn) [Example 10, 3-(4'-Methoxyiminomethylbenzamido)-1-chloro-3-methylpentan-2-one]",1.57,–,–,21.7,–
"CCC(C)(NC(=O)c1ccc(Cl)c(C=NOC)c1)C(=O)CCl (stereo not drawn) [Example 14, N-[3'-(1'-chloro-3'-methyl-2'-oxopentan)]-4-chloro-3-methoxyiminomethylbenzamide]",4.68,25,28.1,1.25,–
"CCC(C)(NC(=O)c1ccc(C(C)=NOC)cc1)C(=O)CCl (stereo not drawn) [Example 19, 3-(4'-Methoxyiminomethyl(methyl)benzamido)-1-chloro-3-methylpentan-2-one]",> 10,> 25,> 100,–,–
CCC(C)(NC(=O)c1cccc(C(C)=NOC)c1)C(=O)CCl (stereo not drawn) [Example 17],24.2,> 25,97.3,–,–
CCC(C)(NC(=O)c1cccc(C=NOC(C)(C)C)c1)C(=O)CCl (stereo not drawn) [Example 8],173,> 25,> 100,46.8,–
"CCC(C)(NC(=O)c1cccc(C=NOC)c1)C(=O)CCl (stereo not drawn) [Example 1, 3-(3'-Methoxyiminomethylbenzamido)-1-chloro-3-methylpentan-2-one]",0.31,1.56,9.5,1.86,"phytotoxicity score, Tomato (tomato plants): 0; phytotoxicity score, Strawberry (strawberry plants): +; phytotoxicity score, Bean (bean plants): 0; phytotoxicity score, Lettuce (lettuce plants): 0; phytotoxicity score, Cucumber (cucumber plants): 0"
CCON=Cc1cccc(C(=O)NC(C)(CC)C(=O)CCl)c1 (stereo not drawn) [Example 3],2.07,6.25,21.8,5.35,–
"CCC(C)(NC(=O)c1cccc(C=NOC)c1)C(=O)CSC#N (stereo not drawn) [Example 13, N-[3'-(1'-thiocyano-3'-methyl-2'oxopentan)]-3-methoxyiminomethylbenzamide]",7.38,–,–,> 20,–
"CON=Cc1cccc(C(=O)NC(C)(C)C(=O)CCl)c1 [Example 2, 3-(3'-Methoxyiminomethylbenzamido)-1-chloro-3-methylbutan-2-one]",1.61,12.5,71.3,4.94,–
"CCC(C)(NC(=O)c1cc(Cl)cc(C=NOC)c1)C(=O)CCl (stereo not drawn) [Example 9, N-[3'-(1'-chloro-3'-methyl-2'-oxopentan)]-3-chloro-5-methoxyiminomethylbenzamide]",0.05,0.05,0.25,0.06,inhibition at 25 ppm [4]: 100%; inhibition at 25 ppm (Monilinia fructicol): 100%; inhibition at 25 ppm (Piricularia oryzae): 100%; inhibition at 25 ppm [5]: 90%; inhibition at 25 ppm (Pythium ultimum [6]): 100%; inhibition at 25 ppm (Cercospora beticola): 100%; inhibition at 25 ppm (Fusarium roseum): 75%; inhibition at 25 ppm (Phytophthora capsici): 100%; inhibition at 25 ppm (Rhizoctonia solani): 90%; inhibition at 25 ppm (Botrytis cinerea [7]): 90%
